A short description of this data set: Human HepG2 cell viability assay in 384 well format. The format is toxicity, cell-based. Set-up: dose 125 nL, time 70.5 hour; concentration not given beside the values. The note with it: HepG2 cells, read-out: Inhibition.

On to `CC(C)c1noc(C(C)S(=O)(=O)CC(=O)N2CCCC2)n1` (stereo not drawn), for which the cytotoxicity at 70.5 h was 17.4%.
Under `Cc1cc(C2CCCN2S(=O)(=O)c2cnn(C)c2)on1` (stereo not drawn) stands -6.62%.
The figure for `O=C(c1ccccc1O)N1CCN(C(=O)C2CCC2)CC1` is 16.4%; for `CCCNC(=O)C1CCN(CC(O)c2ccc(C(F)(F)F)cc2)CC1` (stereo not drawn) it is -5.86%; for `CC(C(=O)N1CCCCCC1)N1CCN(c2nccs2)CC1` (stereo not drawn) it is 19.7%.
As for `CC(C(=O)N1CCCCC1)N1CCN(c2nccs2)CC1` (stereo not drawn), the cytotoxicity at 70.5 h is 2.12%.
Regarding `CS(=O)(=O)Cc1ccc(C(=O)Nc2ccc3c(c2)C(=O)NC3)cc1`, the cytotoxicity at 70.5 h is -6.71%.
Under `CN(C)Cc1ccc(N2CCN(CCOCC(F)(F)F)CC2)nc1` stands 17.7%; under `CC(C)OCCN1CCN(c2ccc(Cl)cn2)CC1`, -6.76%; under `O=C1C(n2nnc(-c3cccs3)n2)CCN1CC(F)(F)F` (stereo not drawn), -7.6%.
Under `CCCOc1ccc(Cl)cc1C(=O)N1CCC(n2cncn2)CC1` stands 17.2%; under `COc1ccc(C(NCc2cccc(C#N)c2)C2CC2)cc1` (stereo not drawn), -2.12%; under `COC(=O)c1cccc(C(=O)N2CCN(C(=O)N(C)C)CC2(C)C)c1`, 16.9%.
Regarding `CN(C)C(=O)c1ccc(NCCNc2ccc3ccccc3n2)nc1`, the cytotoxicity at 70.5 h is 45.4%.
Under `Cc1cnn(CC(C)NCCc2cccs2)c1` (stereo not drawn) stands 23.7%; under `CS(=O)(=O)NCCc1cccc2cccnc12`, 25.3%.
Under `Cc1cc(C(C)NC(=O)c2cnc3onc(C)c3c2)c(C)o1` (stereo not drawn) stands -5.78%.
Under `COC(=O)c1cccc(S(=O)(=O)NC(=O)CC2CCCC2)c1` stands 22.5%; under `CC(C)COCCCNC(=O)NC(C)c1ccc(-n2cncn2)cc1` (stereo not drawn), -3.59%.
`CC(C)C(Sc1ccccc1)C(=O)N(C)Cc1nnc2n1CCC2` (stereo not drawn): the cytotoxicity at 70.5 h came out at 25.6%.
Take `CN(C)CC1CN(Cc2cc(Cl)cc3cccnc23)CCO1` (stereo not drawn): the cytotoxicity at 70.5 h is -9.09%.
For the molecule `CC(=O)c1cc(C(=O)NC2(c3ccc(Br)cc3)CC2)n(C)c1`, the cytotoxicity at 70.5 h is -3.42%.
Under `CN(C)CC1CN(Cc2c(Cl)ccc3cccnc23)CCO1` (stereo not drawn) stands -4.72%; under `Cc1ccc(CN(C)C)cc1NC(=O)C1CC1`, -9.96%.
The figure for `CCc1cnc(N2CCN(Cc3ccncc3)CC2)s1` is -3.17%; for `COc1ccccc1CNCc1nn(-c2ccccc2)c2c1CCC2` it is 0.28%; for `CC(=O)c1ccc(S(=O)(=O)N2CCC(c3n[nH]c(C)n3)CC2)cc1` it is 24.3%.
As for `CS(=O)(=O)NCCCSCc1cccc2cccnc12`, the cytotoxicity at 70.5 h was -9.28%.
Consider `Cc1ccc(C(=O)O)cc1NC(=O)C1CC=CC1`, for which the cytotoxicity at 70.5 h came out at 22.9%.
Under `Brc1ccc(C2(CNCc3cc[nH]c3)CCOCC2)cc1` stands -0.56%.
The figure for `N#CCCCn1nnnc1Cc1ccc(Br)cc1` is -13.9%.
The figure for `Cc1cc(C)n(C2CN(Cc3ccccn3)C2)n1` is -9.82%.
As for `COCc1noc(CCC(=O)c2ccc3c(c2)OCCO3)n1`, the cytotoxicity at 70.5 h is -19.1%.
The figure for `Cc1csc(N2CCN(Cc3cnc4c(c3)c(C)nn4C)CC2)n1` is -24.9%; for `Cc1cc(CN2CCN(Cc3cnc4c(c3)c(C)nn4C)CC2)on1` it is -6.72%; for `Cn1cc(NC(=O)Nc2ccc3c(c2)OCO3)cn1` it is -8.14%.
As for `O=C(CCn1cncn1)NC1(c2cccc(Br)c2)CCC1`, the cytotoxicity at 70.5 h is -2.65%.
The figure for `NS(=O)(=O)CCNC(=O)c1ccc(-c2ccc(F)cc2)cc1F` is -6.9%.
Under `O=C(CCCn1cncn1)NC1(c2ccccc2)CCC1` stands -4.44%; under `CC(C)OCCOCc1cccc(NC(=O)NCc2ccccn2)c1`, -8.39%.
Under `COc1ccc(-c2nc(CN3CC(n4nc(C)cc4C)C3)no2)cc1` stands -5.57%.
As for `N#Cc1ccc(CNCC(C(=O)N2CCOCC2)c2ccccc2)cc1` (stereo not drawn), the cytotoxicity at 70.5 h was -3%.
Under `CN(C(=O)c1cccc(C(=O)NS(C)(=O)=O)c1)c1ccccc1` stands -8.09%; under `CC(C)C1CN(C(=O)c2ccc(N3CCCC3)nc2)CCS1` (stereo not drawn), -8.6%; under `O=C(NC1(c2cccc(F)c2)CCOCC1)c1ccoc1`, -6.8%.
Under `CCc1nc(C2CCCN2Cc2nc(CCOC)no2)no1` (stereo not drawn) stands -9.31%.
Take `CC(C)C(C(=O)N1CCCN(Cc2cnn(C)c2)CC1)n1cncn1` (stereo not drawn): the cytotoxicity at 70.5 h is -7.59%.
The figure for `COCCC(=O)N1CCc2cc(Cl)cc(Cl)c2C1` is -2.57%.
Under `CN(Cc1cccc(F)c1)C(=O)CN1CCCC1CCc1ccccc1` (stereo not drawn) stands -4.07%.
The figure for `CC(C)OCCOCc1cccc(NC(=O)NCCn2ccnc2)c1` is -8.94%; for `COc1cccc(CN(C)C(=O)CN2CC(n3nc(C)cc3C)C2)c1` it is -1.82%; for `COc1cccc(CN(C)C(=O)Nc2ccc3c(c2)OCCO3)c1` it is 12.4%.
As to `CCc1ccc(CNC(=O)NC(C)CN2CCOCC2)s1` (stereo not drawn), the cytotoxicity at 70.5 h was 6.35%.
For the molecule `CC(CN1CCOCC1)NC(=O)N(C)Cc1ccc(Cl)s1` (stereo not drawn), the cytotoxicity at 70.5 h was -2.73%.
Under `CC(=O)N1CCCN(Cc2csc(-c3ncccn3)n2)CC1` stands -7.01%.
Under `CCN(CC)C(=O)c1ccc(NC(=O)CNc2ccc(F)cc2Cl)cc1` stands -6.34%.
The figure for `Cc1cc(=O)n2ncnc2n1CC(O)c1cc(F)ccc1F` (stereo not drawn) is -11.1%.
As for `O=C(Cc1ccccc1F)N1CCN(C(=O)c2ccoc2)CC1`, the cytotoxicity at 70.5 h is -1.84%.
On to `COc1ccc(-c2nnc(SC(C)C(=O)NCC(C)C)[nH]2)c(OC)c1` (stereo not drawn), for which the cytotoxicity at 70.5 h amounted to 56.9%.
The figure for `COc1ccc(-c2nnc(SC(C)C(=O)NC3CC3)[nH]2)c(OC)c1` (stereo not drawn) is 30.9%; for `O=C(c1cc[nH]n1)N1CCCC1C1CCN(Cc2ccccc2)CC1` (stereo not drawn) it is -3.3%; for `O=C(CCN1CCC(C(=O)c2cc(F)ccc2F)CC1)NC1CC1` it is -0.804%.
With `Cc1c(C(=O)NC(C)C(C)C)nnn1-c1cccc2c1CCN(C)C2` (stereo not drawn), the cytotoxicity at 70.5 h was 5.93%.
Under `Cc1cc(C)n(C2CN(CC(=O)N(C)Cc3ccc(C)o3)C2)n1` stands -9.43%; under `CCS(=O)(=O)N1CCc2c(cccc2NC(=O)NCCOC)C1`, -1.31%; under `Cc1ccccc1CS(=O)(=O)CC(=O)NCc1ccccc1F`, 4.2%.
Take `COc1ccc(NC(=O)C(c2cccc(F)c2)N2CCOCC2)cc1` (stereo not drawn): the cytotoxicity at 70.5 h is -8.8%.
Under `CCCOCC(=O)NC1CCc2nc(C)cn2C1` (stereo not drawn) stands -2.67%; under `CCOCCC(=O)Nc1cccc(Oc2ccccn2)c1`, 23.9%; under `Cc1n[nH]c(C2CN(C(=O)c3ccco3)CCO2)n1` (stereo not drawn), -4.63%.
Under `COc1cccc(CN(C)C(=O)CSc2ccc3c(c2)OCCO3)c1` stands -4.28%; under `CN(C)C(=O)Cc1nc(CN2CCCCC2Cn2cccn2)cs1` (stereo not drawn), 37%; under `CCN(Cc1ccco1)C(=O)c1cc(OC)c2c(c1)OCCO2`, 5.2%.
Turning to `CCOCCOC(C)C(=O)NCc1cn2cc(Br)ccc2n1` (stereo not drawn), the cytotoxicity at 70.5 h was -1.73%.
The figure for `CCN(C(=O)COC)C(c1cccnc1)c1cc(C)cc(C)c1` (stereo not drawn) is 13.8%; for `CCN(C(=O)COC)C(c1cccnc1)c1ccc2c(c1)CCO2` (stereo not drawn) it is -2.44%.
The figure for `c1cnnc(N2CCCC2CNCc2nc3ccccc3o2)c1` (stereo not drawn) is -9.74%; for `Cc1ccc(F)cc1S(=O)(=O)N(C)CC(N)=O` it is -11.9%; for `Cc1nc(CCNC(=O)NC2CCN(c3ncccn3)CC2)cs1` it is -8.38%.
The figure for `CN(CC(N)=O)S(=O)(=O)c1ccc(F)cc1Cl` is -11.4%.
For `CC(C)Oc1ncc(C(=O)N2CCC(NC(=O)C3CC3)CC2)cc1Cl`, the cytotoxicity at 70.5 h was 7%.
Under `CCN(CC)C1CCN(C(=O)NCc2c(C)noc2C)CC1` stands -7.03%; under `COC(=O)CCNC(=O)c1ccoc1CN1c2ccccc2CC1C` (stereo not drawn), -1.15%; under `O=C(NCCC1CCCO1)c1ccccc1N1CCOCC1` (stereo not drawn), 1.49%.
On to `Cc1ccc(N2CCCN(C(=O)c3cc(Cl)c[nH]3)CC2)nn1`, for which the cytotoxicity at 70.5 h is -8.66%.
Take `Cc1nnc2n1CCN(C(=O)c1cn(-c3ccccc3Cl)nn1)C2`: the cytotoxicity at 70.5 h was -9.21%.
The figure for `Cc1cccc(N2CCN(C(=O)CN3CCN(CCO)CC3)CC2)c1` is 0.659%; for `CN1CCCc2cc(NC(=O)N3CCOC(C(N)=O)C3)ccc21` (stereo not drawn) it is 3.77%; for `Cc1cnc(C(=O)N2CCCN(Cc3csc(C)n3)CC2)cn1` it is -5.72%.
Take `Cc1ccc(OCC(=O)NCc2ccccc2F)nc1`: the cytotoxicity at 70.5 h is -2.31%.
The figure for `CS(=O)(=O)c1ccc(OCCNCc2ccc(F)cc2F)cc1` is 0.183%; for `CCN(CC)c1ccc(NS(=O)(=O)c2cnn(C)c2)cn1` it is -2.05%; for `CCCNC(=O)COc1ccc(C)cn1` it is -0.369%.
Under `CC(C)Oc1cccc(C(O)CNC(=O)CCc2ccncc2)c1` (stereo not drawn) stands -5.8%; under `Cc1[nH]ccc1C(=O)Nc1cccc(CN2CCC(CO)CC2)c1`, 27.9%.
The figure for `Cc1[nH]ccc1C(=O)Nc1cccc(CN2CCC(O)CC2)c1` is 1.4%.
`NCC(c1ccccc1)N1CCc2sccc2C1` (stereo not drawn): the cytotoxicity at 70.5 h stood at 5.18%.
Under `O=C(Nc1ccccn1)C1CC(=O)N(Cc2ccccn2)C1` (stereo not drawn) stands 16.8%; under `O=C(NC1CCC1)c1c2c(N3CCCC3)ncnc2n2ccccc12`, -2.42%; under `CC(=O)N1CCC2(CCN(C(=O)c3ccc(F)c(C(F)(F)F)c3)CC2)C1`, -6.93%.
Under `COc1ccc(C(NCc2ccc(C#N)cc2)C2CC2)cc1` (stereo not drawn) stands -7.6%.
With `COc1cccc(-c2c[nH]c(C3CCCN3)n2)c1` (stereo not drawn), the cytotoxicity at 70.5 h was -4.68%.
Under `COc1ccccc1-c1c[nH]c(C2CCCN2)n1` (stereo not drawn) stands -7.74%.

Values taken from ChEMBL document CHEMBL3507680, “University of Dundee, Gates Library screen for HepG2 cell viability”.
